Source: PubChem BioAssay AID1963841 (Molecular Pharmacology Branch, DTP, NCI, 2024)

Tested on: 439559-082-T-J2-PDC spheroid viability
Test: Anticancer human tumor 439559-082-T-J2-PDC patient-derived colon adenocarcinoma cell line growth inhibition [POLQ]
Conditions: spheroids with HUVEC and MSC; for IC50: curve of first compound; for viability, T/C: stronger effect = lower value
Method in brief: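 Complex spheroid viability model combining PDC tumour cells with endothelial (HUVEC) and MSC stromal cells. Novobiocin, ART-558 or RP6685 were tested singly and in combination with standard and investigational anticancer drugs. Each was titrated in half-log steps from near clinical Cmax, or from 10 microM where Cmax was unknown.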

[1] = second compound 0.0316 µM, first compound 0.00316 µM
[2] = second compound 0.0316 µM, first compound 0.01 µM
[3] = second compound 0.0316 µM, first compound 0.0316 µM
[4] = second compound 0.0316 µM, first compound 0.1 µM
[5] = second compound 0.1 µM, first compound 0.00316 µM
[6] = second compound 0.1 µM, first compound 0.01 µM
[7] = second compound 0.1 µM, first compound 0.0316 µM
[8] = second compound 0.1 µM, first compound 0.1 µM
[9] = second compound 0.316 µM, first compound 0.00316 µM
[10] = second compound 0.316 µM, first compound 0.01 µM
[11] = second compound 0.316 µM, first compound 0.0316 µM
[12] = second compound 0.316 µM, first compound 0.1 µM
[13] = second compound 1 µM, first compound 0.00316 µM
[14] = second compound 1 µM, first compound 0.01 µM
[15] = second compound 1 µM, first compound 0.0316 µM
[16] = second compound 1 µM, first compound 0.1 µM
[17] = second compound 3.16 µM, first compound 0.00316 µM
[18] = second compound 3.16 µM, first compound 0.01 µM
[19] = second compound 3.16 µM, first compound 0.0316 µM
[20] = second compound 3.16 µM, first compound 0.1 µM
[21] = second compound 10 µM, first compound 0.00316 µM
[22] = second compound 10 µM, first compound 0.01 µM
[23] = second compound 10 µM, first compound 0.0316 µM
[24] = second compound 10 µM, first compound 0.1 µM
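Further: spheroids exposed to compounds for seven days before readout.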
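Wherever viability, T/C is given: 100% = DMSO vehicle control viability.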

Cn1ncnc1[C@H]1c2n[nH]c(=O)c3cc(F)cc(c23)N[C@@H]1c1ccc(F)cc1 + Cc1cccc(N(C)C(=O)C2C(O)CCN2c2nc(C)cc(C(F)(F)F)c2C#N)c1
IC50 (second compound 0.0316 µM): > 0.1 µM
IC50 (second compound 0.1 µM): > 0.1 µM
IC50 (second compound 0.316 µM): > 0.1 µM
IC50 (second compound 1 µM): > 0.1 µM
IC50 (second compound 3.16 µM): > 0.1 µM
IC50 (second compound 10 µM): > 0.1 µM
viability, T/C (second compound 0.0316 µM, first compound 0.000316 µM): 97.7%
viability, T/C (second compound 0.0316 µM, first compound 0.001 µM): 103%
viability, T/C [1]: 97.5%
viability, T/C [2]: 99.2%
viability, T/C [3]: 90.8%
viability, T/C [4]: 93.4%
viability, T/C (second compound 0.1 µM, first compound 0.000316 µM): 108%
viability, T/C (second compound 0.1 µM, first compound 0.001 µM): 108%
viability, T/C [5]: 96%
viability, T/C [6]: 102%
viability, T/C [7]: 94.5%
viability, T/C [8]: 86.3%
viability, T/C (second compound 0.316 µM, first compound 0.000316 µM): 105%
viability, T/C (second compound 0.316 µM, first compound 0.001 µM): 107%
viability, T/C [9]: 99.6%
viability, T/C [10]: 99.5%
viability, T/C [11]: 92.7%
viability, T/C [12]: 93.4%
viability, T/C (second compound 1 µM, first compound 0.000316 µM): 110%
viability, T/C (second compound 1 µM, first compound 0.001 µM): 96.5%
viability, T/C [13]: 93.1%
viability, T/C [14]: 92.8%
viability, T/C [15]: 99.9%
viability, T/C [16]: 96.8%
viability, T/C (second compound 3.16 µM, first compound 0.000316 µM): 93%
viability, T/C (second compound 3.16 µM, first compound 0.001 µM): 103%
viability, T/C [17]: 103%
viability, T/C [18]: 91.9%
viability, T/C [19]: 101%
viability, T/C [20]: 87.5%
viability, T/C (second compound 10 µM, first compound 0.000316 µM): 95.7%
viability, T/C (second compound 10 µM, first compound 0.001 µM): 98.1%
viability, T/C [21]: 95.4%
viability, T/C [22]: 86.2%
viability, T/C [23]: 91.5%
viability, T/C [24]: 85.2%

COc1cccc(OCCCN)c1-c1cc(Nc2cnc(C#N)cn2)n[nH]1 + Cc1cccc(N(C)C(=O)C2C(O)CCN2c2nc(C)cc(C(F)(F)F)c2C#N)c1
IC50 (second compound 0.0316 µM): 0.274 µM
IC50 (second compound 0.1 µM): 0.319 µM
IC50 (second compound 0.316 µM): 0.299 µM
IC50 (second compound 1 µM): 0.398 µM
IC50 (second compound 3.16 µM): 0.291 µM
IC50 (second compound 10 µM): 0.15 µM
viability, T/C [1]: 99.3%
viability, T/C [2]: 99.7%
viability, T/C [3]: 71%
viability, T/C [4]: 77.9%
viability, T/C (second compound 0.0316 µM, first compound 0.316 µM): 44.8%
viability, T/C (second compound 0.0316 µM, first compound 1 µM): 18.5%
viability, T/C [5]: 100%
viability, T/C [6]: 74.7%
viability, T/C [7]: 71.1%
viability, T/C [8]: 78.1%
viability, T/C (second compound 0.1 µM, first compound 0.316 µM): 49.5%
viability, T/C (second compound 0.1 µM, first compound 1 µM): 19.9%
viability, T/C [9]: 104%
viability, T/C [10]: 83.8%
viability, T/C [11]: 84.8%
viability, T/C [12]: 68.7%
viability, T/C (second compound 0.316 µM, first compound 0.316 µM): 51%
viability, T/C (second compound 0.316 µM, first compound 1 µM): 19.8%
viability, T/C [13]: 110%
viability, T/C [14]: 94.2%
viability, T/C [15]: 82.5%
viability, T/C [16]: 77.5%
viability, T/C (second compound 1 µM, first compound 0.316 µM): 64.2%
viability, T/C (second compound 1 µM, first compound 1 µM): 20.9%
viability, T/C [17]: 87.6%
viability, T/C [18]: 102%
viability, T/C [19]: 81.7%
viability, T/C [20]: 74.9%
viability, T/C (second compound 3.16 µM, first compound 0.316 µM): 48.1%
viability, T/C (second compound 3.16 µM, first compound 1 µM): 19.4%
viability, T/C [21]: 101%
viability, T/C [22]: 86.9%
viability, T/C [23]: 94.5%
viability, T/C [24]: 63.2%
viability, T/C (second compound 10 µM, first compound 0.316 µM): 25.1%
viability, T/C (second compound 10 µM, first compound 1 µM): 16.2%
